From patent US20070218475A1, “Efficient drug screening for protein targets” (priority 2005, published 2007)

Tests used:
Shh signaling = assay: Shh-LIGHT2 assay for Hh pathway activation (Gli-dependent luciferase reporter); assay type: cell-based, mouse; details: Shh-LIGHT2 mouse cultured cell assay; read-out: IC50, inhibition of Shh signaling
Smo = target: T1, Smo (Mus musculus, UniProt P56726); assay: Fluorescence (BODIPY-cyclopamine) binding assay, Smo-expressing Cos-1 cells; details: Cos-1 cells transiently transfected, fluorescence microscopy and flow cytometry
T1 construct: expressed in transfected cells; host or cells: Cos-1
Description: For flow cytometry experiments, the cells were then trypsinized, collected by centrifugation, resuspended in phenol red-free DMEM containing 0.5% bovine calf serum, and analyzed for green fluorescence (FACScan, Beckton Dickinson). […] Curve fitting analysis was performed with Kaleidograph (Synergy Software).

SmoA1 = target: T2, SmoA1 (Mus musculus, UniProt P56726, W539L); assay: Fluorescence (BODIPY-cyclopamine) binding assay, SmoA1-expressing Cos-1 cells; details: flow cytometry
T2 construct: expressed in transfected cells; host or cells: Cos-1
Description: (§1) Fluorescence binding assay: Cos-1 cells were transfected in 6-well plates with the described expression vectors (1 μg/well), and after two days, incubated in DMEM containing 10% fetal bovine serum, 5 nM BODIPY-cyclopamine, and various concentrations of the indicated competitors for 4-6 h at 37° C. For flow cytometry experiments, the cells were then trypsinized, collected by centrifugation, resuspended in phenol red-free DMEM containing 0.5% bovine calf serum, and analyzed for green fluorescence (FACScan, Beckton Dickinson). A fluorescence intensity range that excludes non-transfected cells was then selected for quantification of specific BODIPY-cyclopamine binding (see brackets in FIGS. 2C, 2D, and 3A). Curve fitting analysis was performed with Kaleidograph (Synergy Software).

[1] = target: T3, Smo protein from Drosophila (Drosophila melanogaster, UniProt P91682); assay: Fluorescence (BODIPY-cyclopamine) binding assay, Cos-1 cells expressing Drosophila Smo; details: flow cytometry
T3 construct: expressed in transfected cells; host or cells: Cos-1
T3 sequence (P91682 32-1036): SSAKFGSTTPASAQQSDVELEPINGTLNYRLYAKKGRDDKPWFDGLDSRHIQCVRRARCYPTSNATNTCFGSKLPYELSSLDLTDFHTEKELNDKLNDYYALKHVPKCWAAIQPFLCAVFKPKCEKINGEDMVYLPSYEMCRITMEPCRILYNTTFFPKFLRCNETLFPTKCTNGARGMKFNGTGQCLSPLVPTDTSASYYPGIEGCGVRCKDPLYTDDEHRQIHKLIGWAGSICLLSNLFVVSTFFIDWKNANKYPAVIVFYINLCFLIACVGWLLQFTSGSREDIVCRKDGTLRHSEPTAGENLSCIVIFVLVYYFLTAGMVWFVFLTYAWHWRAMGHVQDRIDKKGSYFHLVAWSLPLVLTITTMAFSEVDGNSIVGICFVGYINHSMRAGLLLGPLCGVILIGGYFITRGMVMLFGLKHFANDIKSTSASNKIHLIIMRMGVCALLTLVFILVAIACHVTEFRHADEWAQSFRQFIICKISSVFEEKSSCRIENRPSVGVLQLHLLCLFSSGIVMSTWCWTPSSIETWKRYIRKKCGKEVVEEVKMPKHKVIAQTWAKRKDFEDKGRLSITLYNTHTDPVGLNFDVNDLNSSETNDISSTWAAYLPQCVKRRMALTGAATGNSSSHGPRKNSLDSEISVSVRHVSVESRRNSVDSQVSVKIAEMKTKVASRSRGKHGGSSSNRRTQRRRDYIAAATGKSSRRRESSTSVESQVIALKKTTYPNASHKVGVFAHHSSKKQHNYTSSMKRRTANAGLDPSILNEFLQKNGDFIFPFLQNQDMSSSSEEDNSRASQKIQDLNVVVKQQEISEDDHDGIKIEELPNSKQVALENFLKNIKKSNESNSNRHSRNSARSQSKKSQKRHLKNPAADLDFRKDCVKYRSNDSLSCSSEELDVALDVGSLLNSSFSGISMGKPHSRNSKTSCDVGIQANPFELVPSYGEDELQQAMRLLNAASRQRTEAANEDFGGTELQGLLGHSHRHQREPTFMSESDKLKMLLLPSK
Description: as §1

mouse Ptch = target: T4, mouse Ptch (Mus musculus, UniProt Q61115); assay: Fluorescence (BODIPY-cyclopamine) binding assay, Cos-1 cells expressing Ptch; details: flow cytometry
T4 construct: expressed in transfected cells; host or cells: Cos-1
T4 sequence (Q61115 1-1434): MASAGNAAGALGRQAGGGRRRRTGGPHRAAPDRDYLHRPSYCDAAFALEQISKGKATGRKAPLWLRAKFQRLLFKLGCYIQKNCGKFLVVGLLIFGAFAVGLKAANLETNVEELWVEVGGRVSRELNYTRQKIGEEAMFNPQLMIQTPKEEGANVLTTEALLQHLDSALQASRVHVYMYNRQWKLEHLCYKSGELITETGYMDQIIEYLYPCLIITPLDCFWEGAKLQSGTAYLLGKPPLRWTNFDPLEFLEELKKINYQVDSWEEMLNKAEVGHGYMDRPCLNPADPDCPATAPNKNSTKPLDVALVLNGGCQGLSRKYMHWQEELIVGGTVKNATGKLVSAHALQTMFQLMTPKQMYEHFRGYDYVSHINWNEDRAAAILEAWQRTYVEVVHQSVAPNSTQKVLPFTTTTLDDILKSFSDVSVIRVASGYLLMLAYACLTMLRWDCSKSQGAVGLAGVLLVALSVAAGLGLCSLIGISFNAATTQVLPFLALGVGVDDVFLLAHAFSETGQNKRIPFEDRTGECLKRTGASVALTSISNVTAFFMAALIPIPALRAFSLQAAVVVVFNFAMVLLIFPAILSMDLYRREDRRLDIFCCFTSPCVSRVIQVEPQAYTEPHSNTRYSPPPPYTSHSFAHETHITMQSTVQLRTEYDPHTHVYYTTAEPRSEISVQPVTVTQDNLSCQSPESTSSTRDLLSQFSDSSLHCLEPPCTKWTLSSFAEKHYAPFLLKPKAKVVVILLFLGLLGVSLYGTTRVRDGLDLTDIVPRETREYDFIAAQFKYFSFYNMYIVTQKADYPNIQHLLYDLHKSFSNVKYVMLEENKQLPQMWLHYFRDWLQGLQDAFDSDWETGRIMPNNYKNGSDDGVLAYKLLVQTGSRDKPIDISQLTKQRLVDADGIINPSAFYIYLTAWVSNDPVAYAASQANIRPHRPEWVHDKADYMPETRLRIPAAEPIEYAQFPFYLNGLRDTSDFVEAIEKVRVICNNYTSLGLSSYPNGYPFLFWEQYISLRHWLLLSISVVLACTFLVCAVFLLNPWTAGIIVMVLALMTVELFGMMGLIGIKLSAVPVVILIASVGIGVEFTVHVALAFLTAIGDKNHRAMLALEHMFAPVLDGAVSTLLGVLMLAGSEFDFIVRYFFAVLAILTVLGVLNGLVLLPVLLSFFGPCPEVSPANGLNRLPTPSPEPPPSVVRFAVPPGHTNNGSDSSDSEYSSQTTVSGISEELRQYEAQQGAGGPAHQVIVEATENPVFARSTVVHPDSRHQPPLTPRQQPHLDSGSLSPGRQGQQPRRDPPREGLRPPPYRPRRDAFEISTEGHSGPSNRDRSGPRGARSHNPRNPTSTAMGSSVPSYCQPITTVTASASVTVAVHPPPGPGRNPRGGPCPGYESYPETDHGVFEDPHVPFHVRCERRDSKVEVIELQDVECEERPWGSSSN
Description: as §1

T1 sequence (P56726 33-793): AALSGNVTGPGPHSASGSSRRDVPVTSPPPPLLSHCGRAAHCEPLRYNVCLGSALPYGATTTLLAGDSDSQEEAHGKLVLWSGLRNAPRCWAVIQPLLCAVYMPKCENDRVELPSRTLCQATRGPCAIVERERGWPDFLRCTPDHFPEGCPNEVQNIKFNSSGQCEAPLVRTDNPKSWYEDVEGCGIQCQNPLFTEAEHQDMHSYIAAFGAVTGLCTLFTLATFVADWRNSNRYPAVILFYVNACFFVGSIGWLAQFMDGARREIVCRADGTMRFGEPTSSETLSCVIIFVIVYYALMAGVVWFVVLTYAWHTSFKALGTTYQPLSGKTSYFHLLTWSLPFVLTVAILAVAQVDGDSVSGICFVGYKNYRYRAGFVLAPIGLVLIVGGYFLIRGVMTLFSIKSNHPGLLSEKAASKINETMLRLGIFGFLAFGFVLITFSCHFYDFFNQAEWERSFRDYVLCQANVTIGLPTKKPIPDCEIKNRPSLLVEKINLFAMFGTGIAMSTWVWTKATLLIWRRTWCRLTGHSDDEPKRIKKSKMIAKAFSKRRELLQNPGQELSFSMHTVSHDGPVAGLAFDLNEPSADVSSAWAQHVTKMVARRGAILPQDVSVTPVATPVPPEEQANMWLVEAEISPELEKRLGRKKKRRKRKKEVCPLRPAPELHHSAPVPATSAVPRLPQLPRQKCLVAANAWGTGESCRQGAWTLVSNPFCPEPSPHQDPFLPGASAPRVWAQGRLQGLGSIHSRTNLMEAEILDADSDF
T2 sequence (P56726 33-793 W539L): as the sequence (P56726 33-793) above, with W507L counted along it

`CC1=C2CC3C(CC=C4C[C@@H](O)CCC43C)C2CCC12O[C@@H]1CC(C)CN(CCNC(=O)CCCCCNC(=O)CCC3=[N+]4C(=Cc5c(C)cc(C)n5[B-]4(F)F)C=C3)C1C2C` (some centres unmarked) [BODIPY-cyclopamine] was tested. Which IC50 (Shh signaling) did it give?
Its IC50 is 150 nM.

What about the “binding to Smo-expressing cells” value (Smo) of the same compound?
Its value is “bound with high capacity”.

And the “binding to cells expressing SmoA1” value (SmoA1)?
The value was “did not bind”.

What about the “binding to cells expressing Drosophila Smo” value [1] of the same compound?
Its value is “did not bind”.

And the “binding to cells expressing mouse Ptch” value (mouse Ptch)?
The value was “did not bind”.
